Among the data in patent publication US10570096B2, “Diamino pyridine derivatives” (NOVARTIS AG, priority 2015, dated 2020) are IC50 values, retold here.

The structures appear in SMILES notation.

Holding throughout (assay type): biochemical
One assay deals with T1, JAK1 (Homo sapiens, UniProt P23458).
T1 construct: GST-fusions of the active kinase domains (GST-JAK1 (866-1154)); host or cells: insect cells
Description: Enzymatic JAK assay (Caliper mobility shift), JAK1. As to conditions: GST-JAK1 (866-1154) kinase domain, 16 nM enzyme, 70 μM ATP (KmATP), 30° C., 60 minutes. Here is the method:
(§1) Enzymatic JAK assays. For enzyme assays affinity-purified GST-fusions of the active kinase domains (GST-JAK1 (866-1154), GST-JAK2 (808-1132), GST-JAK3 (811-1124), and GST-TYK2(888-1187) were expressed in insect cells or purchased from Invitrogen (Carlsbad, USA). All assays were performed in 384-well microtiter plates with 8-point serial dilutions of compounds. The kinase reactions were started by stepwise addition of 4.5 μl per well of a 2× peptide/ATP-solution and 4.5 μl per well of a 2× enzyme solution. The final ATP concentration used in the assays corresponds to the individually determined KmATP for the respective enzyme. Assay buffer: 50 mM HEPES, pH 7.5, 1 mM DTT, 0.02% Tween20, 0.02% BSA, 0.6% DMSO, 10 mM beta-glycerophosphate, and 10 μM sodium orthovanadate. Other components were adjusted specifically for the respective kinase assays: JAK1: 16 nM enzyme, 70 μM ATP, 2 μM peptide substrate, 12 mM MgCl2. JAK2: 1.8 nM enzyme, 20 μM ATP, 2 μM peptide substrate, 9 mM MgCl2. JAK3: 13 nM enzyme, 18 μM ATP, 2 μM peptide substrate, 1.5 mM MgCl2. Tyk2: 3.5 nM enzyme, 35 μM ATP, 2 μM peptide substrate, 9 mM MgCl2. […] Phosphorylated and unphosphorylated peptides were separated using the Caliper microfluidic mobility shift technology on a Caliper LC3000 workstation and kinase activities were calculated from the amounts of formed phospho-peptide.

The target in another assay is T2, JAK2 (Homo sapiens, UniProt O60674).
T2 construct: GST-JAK2 (808-1132); host or cells: insect cells
Description: Enzymatic JAK assay (Caliper mobility shift), JAK2. The settings on record: GST-JAK2 (808-1132) kinase domain, 1.8 nM enzyme, 20 μM ATP (KmATP), 30° C., 60 minutes. As to the method: as §1

The target in the next assay is T3, JAK3 (Homo sapiens, UniProt P52333).
T3 construct: GST-JAK3 (811-1124); host or cells: insect cells
In words: Enzymatic JAK assay (Caliper mobility shift), JAK3. As to conditions: GST-JAK3 (811-1124) kinase domain, 13 nM enzyme, 18 μM ATP (KmATP), 30° C., 60 minutes. Here is the method: as §1

The next assay concerns the target T4, Tyk2 (Homo sapiens, UniProt P29597).
T4 construct: GST-TYK2(888-1187); host or cells: insect cells
T4 sequence (P29597 888-1187): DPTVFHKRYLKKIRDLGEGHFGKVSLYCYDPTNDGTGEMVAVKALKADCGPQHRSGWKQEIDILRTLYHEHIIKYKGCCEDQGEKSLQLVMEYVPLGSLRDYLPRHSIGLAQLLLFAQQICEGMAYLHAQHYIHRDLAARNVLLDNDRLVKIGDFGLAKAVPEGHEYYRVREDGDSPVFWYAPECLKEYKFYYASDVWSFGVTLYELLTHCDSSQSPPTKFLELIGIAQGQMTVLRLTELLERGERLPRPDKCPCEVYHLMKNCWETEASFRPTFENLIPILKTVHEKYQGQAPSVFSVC
In words: Enzymatic JAK assay (Caliper mobility shift), Tyk2. The settings on record: GST-TYK2(888-1187) kinase domain, 3.5 nM enzyme, 35 μM ATP (KmATP), 30° C., 60 minutes. Here is the method:
as §1

T2 sequence (O60674 808-1132): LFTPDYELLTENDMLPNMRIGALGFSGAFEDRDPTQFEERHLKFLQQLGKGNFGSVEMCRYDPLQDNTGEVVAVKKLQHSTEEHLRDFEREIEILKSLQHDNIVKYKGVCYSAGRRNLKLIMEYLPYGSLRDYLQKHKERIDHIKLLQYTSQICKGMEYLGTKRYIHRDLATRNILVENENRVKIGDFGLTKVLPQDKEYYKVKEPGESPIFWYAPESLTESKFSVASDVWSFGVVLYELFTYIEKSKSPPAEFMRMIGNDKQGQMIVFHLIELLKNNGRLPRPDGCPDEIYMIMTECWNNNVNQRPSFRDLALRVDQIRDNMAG
T1 sequence (P23458 866-1154): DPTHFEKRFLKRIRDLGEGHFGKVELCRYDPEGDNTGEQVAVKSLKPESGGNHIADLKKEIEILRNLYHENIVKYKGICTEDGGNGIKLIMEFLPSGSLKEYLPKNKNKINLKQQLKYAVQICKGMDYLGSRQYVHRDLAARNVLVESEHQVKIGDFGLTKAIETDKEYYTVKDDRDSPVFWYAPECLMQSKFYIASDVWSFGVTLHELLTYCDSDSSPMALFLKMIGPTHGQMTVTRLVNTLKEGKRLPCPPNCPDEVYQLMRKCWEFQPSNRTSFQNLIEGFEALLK
T3 sequence (P52333 811-1124): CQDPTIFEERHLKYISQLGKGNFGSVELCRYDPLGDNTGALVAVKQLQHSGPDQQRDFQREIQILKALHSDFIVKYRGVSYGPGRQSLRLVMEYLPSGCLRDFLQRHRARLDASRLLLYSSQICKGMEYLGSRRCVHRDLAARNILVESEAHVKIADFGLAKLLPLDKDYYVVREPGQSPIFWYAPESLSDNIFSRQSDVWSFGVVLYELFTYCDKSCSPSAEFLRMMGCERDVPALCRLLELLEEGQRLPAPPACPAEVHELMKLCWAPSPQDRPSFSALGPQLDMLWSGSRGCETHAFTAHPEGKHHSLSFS

As usually defined, the IC50 is the concentration that gives 50% inhibition. For `NC(=O)c1cnc(Nc2ccccn2)cc1Nc1ccccc1Cl` [Example 1, 4-((2-chlorophenyl)amino)-6-(pyridin-2-ylamino)nicotinamide], the IC50 at JAK1 amounted to 18 nM; at JAK2, 14 nM; on JAK3, 9 nM; at Tyk2, 14 nM.

`Cc1cccc(Nc2cc(Nc3ccccc3Cl)c(C(N)=O)cn2)n1` [Example 2, 4-((2-chlorophenyl)amino)-6-((6-methylpyridin-2-yl)amino)nicotinamide]: the IC50 at JAK1 is 12 nM; on JAK2 it was 25 nM; on JAK3, 15 nM; at Tyk2, 24 nM.
